# Assay results taken from PMC9268571, “Parabens Permeation through Biological Membranes: A Comparative Study Using Franz Cell Diffusion System and Biomimetic Liquid Chromatography” (Molecules, 2022).
# Read-outs that look alike come from different tables or passages of the source.
# Tests used:
# [1] = IAM chromatography (phospholipophilicity) on IAM.PC.DD2; type: physicochemical; conditions: 0.1 M phosphate buffer pH 5.0/acetonitrile, extrapolated to 100% aqueous phase
# Procedure: (§1) Phospholipophilicity was experimentally determined using two IAM analytical columns, i.e., IAM.PC.MG (150 × 4.6 mm, 10 μm p.s., pore size: 300 Å) and IAM.PC.DD2 (150 × 4.6 mm, 10 μm p.s., pore size: 300 Å), both from Regis Chemical Company (Morton Grove, IL, USA). The analyses on the IAM.PC.MG were conducted on a LC-20 AD VP (from Shimadzu Corp., Kyoto, Japan), equipped with an ultraviolet (UV)–visible detector (Shimadzu Model SPD10 AV) set at λ = 254 nm. For the determinations on the IAM.PC.DD2, an alliance HPLC system (Waters Corporation, Milford, MA USA) with 2690/2695 separation module, 2996 PDA detector, 717 plus autosampler, and 2487 dual λ absorbance detector, was used at 254 nm wavelength instead. The methods were set, and chromatograms were recorded by Waters Empower® 3 software (Milford, MA USA). On both columns, employed eluents were 0.1 M phosphate buffer at pH 5.0 and acetonitrile at various percentages with a flow rate of 1.0 mL min^−1. All samples were dissolved in acetonitrile (ca. 10^−4 M), and chromatographic analyses were carried out at 22 ± 2 °C. The two different IAM stationary phases differ from each other in the end-capping of residual amino groups of the silica-propylamine core, which support C10 and C3 alkyl chains being end-capped by both decanoic and propionic anhydrides (IAM.PC.DD2), while IAM.PC.MG supports hydroxy groups being end-capped by methyl glycolate. […] Since all the compounds under our investigation required at least the addition of acetonitrile to the mobile phase to elute within 20 min, at least three different mobile phases containing acetonitrile in percentages (φ), ranging from 10% to 30% (v/v), were employed. All kw IAM values average at least three individual measurements, and the final values are reported as decimal logarithms.
# [2] = set-up: method as in PubCHEM; conditions: n-octanol–water; ref PubCHEM; cited from earlier work
# [3] = IAM chromatography (phospholipophilicity) on IAM.PC.MG; type: physicochemical; conditions: 0.1 M phosphate buffer pH 5.0/acetonitrile, extrapolated to 100% aqueous phase
# Procedure: as §1
# [4] = source not stated, no method described; cited from earlier work
# [5] = in vitro; conditions: male, pig
smiles,measurement,setting,value
"CCCCOC(=O)c1ccc(O)cc1 [BuP, Butyl 4-hydroxybenzoate]",logkw IAM.DD2,[1],2.812
same,Log P,[2],3.57
same,logkw IAM.MG,[3],1.818
"O=C(OCc1ccccc1)c1ccc(O)cc1 [BzP, Benzyl 4-hydroxybenzoate]",logkw IAM.DD2,[1],2.735
same,Log P,[2],3.56
same,S (Solubility in water),[4],92 µg/mL
same,logkw IAM.MG,[3],2.292
"CCOC(=O)c1ccc(O)cc1 [EP, Ethyl 4-hydroxybenzoate]",logkw IAM.DD2,[1],1.751
same,Log P,[2],2.47
same,S (Solubility in water),[4],885 µg/mL
same,Log Kp * (determined in the present study),"experimental, Franz cell, porcine ear skin",−6.58 cm/s
same,time to maximum passage through the porcine skin,from the beginning of the experiment,≤ 120 min
same,Maximum Flux,"porcine ear skin, saturated solution in PBS pH 5.0 as donor, receptor PBS pH 7.4, 37 °C, ± standard deviation",2.35 ± 0.71 µg/cm^2/h
same,Permeation (%) (Median),"porcine ear skin, median, 95% interval confidence in parentheses",0.110 (0–0.11) %
same,Papp at 24 h,[5],0.261 ×10⁻⁶ cm/s
same,logkw IAM.MG,[3],0.956
"COC(=O)c1ccc(O)cc1 [MP, Methyl 4-hydroxybenzoate]",logkw IAM.DD2,[1],1.306
same,logkw IAM.MG,[3],0.615
"CCCOC(=O)c1ccc(O)cc1 [PrP, Propyl 4-hydroxybenzoate]",logkw IAM.DD2,[1],2.267
same,detection in receptor fluids,"at any time (½–24 h), fully aqueous donor pH 5.0",not detected
same,logkw IAM.MG,[3],1.339
"CC(C)COC(=O)c1ccc(O)cc1 [iBuP, Isobutyl 4-hydroxybenzoate]",logkw IAM.DD2,[1],2.448
same,Log P,[2],3.57
same,S (Solubility in water),[4],207 µg/mL
same,logkw IAM.MG,[3],1.708
"CC(C)OC(=O)c1ccc(O)cc1 [iPrP, Isopropyl 4-hydroxybenzoate]",logkw IAM.DD2,[1],1.914
same,S (Solubility in water),[4],500 µg/mL
same,logkw IAM.MG,[3],1.227
"O=C(O)c1ccc(O)cc1 [pHBA, 4-Hydroxybenzoic acid]",logkw IAM.DD2,[1],< 1
same,logkw IAM.DD2,[1]; listed as pHB,−1.054
same,Maximum Flux,"male, pig",12.68 ± 4.08 µg/cm^2/h
same,Permeation (%) (Median),"male, pig",0.997 (0–1.22) %
same,time to maximum passage through the porcine skin,"male, pig",≤ 30 min
same,Log Kp * (determined in the present study),pig,−5.48 cm/s
same,Papp at 24 h,[5],3.33 ×10⁻⁶ cm/s
same,logkw IAM.MG,[3],< 1
same,logkw IAM.MG,[3]; listed as pHB,−0.955
